What was measured:
[1] = Particle size and polydispersity index of nanoparticle compositions (Zetasizer Nano ZS); type: physicochemical; details: summary of Table 1
Protocol: A Zetasizer Nano ZS (Malvem Instruments Ltd, Malvem, Worcestershire, UK) can be used to determine the particle size, the polydispersity index (PDI) and the zeta potential of the nanoparticle compositions in 1×PBS in determining particle size and 15 mM PBS in determining zeta potential.

[2] = Encapsulation efficiency of RNA (QUANT-IT RIBOGREEN RNA assay); type: physicochemical; details: summary of Table 1
Protocol: For nanoparticle compositions including an RNA, a QUANT-IT™ RIBOGREEN® RNA assay (Invitrogen Corporation Carlsbad, CA) can be used to evaluate the encapsulation of an RNA by the nanoparticle composition. The samples are diluted to a concentration of approximately 5 μg/mL in a TE buffer solution (10 mM Tris-HCl, 1 mM EDTA, pH 7.5). 50 μL of the diluted samples are transferred to a polystyrene 96 well plate and either 50 μL of TE buffer or 50 μL of a 2% Triton X-100 solution is added to the wells. The plate is incubated at a temperature of 37° C. for 15 minutes. The RIBOGREEN® reagent is diluted 1:100 in TE buffer, and 100 μL of this solution is added to each well. The fluorescence intensity can be measured using a fluorescence plate reader (Wallac Victor 1420 Multilablel Counter; Perkin Elmer, Waltham, MA) at an excitation wavelength of, for example, about 480 nm and an emission wavelength of, for example, about 520 nm. The fluorescence values of the reagent blank are subtracted from that of each of the samples and the percentage of free RNA is determined by dividing the fluorescence intensity of the intact sample (without addition of Triton X-100) by the fluorescence value of the disrupted sample (caused by the addition of Triton X-100).

[3] = pKa of nanoparticle compositions; type: physicochemical; details: Table 1b
[4] = Lipid clearance: % dose remaining in liver of CD-1 mice; type: in vivo; details: intravenous, 0.5 mg/kg, CD-1 mouse, Table 8a
Description: In contrast, hEPO expression in rats induced by administration of a nanoparticle composition including a compound according to one of formulae (I), (Ia1)-(Ia6), (Ib), (II), (IIa), (III), and (IIIa) was substantially […] than that measured for MC3. […] Tables 7c and 7d show additional protein expressions and clearance data from compositions with various compounds disclosed herein as compared to with MC3. Tables 7e, 7f and 7g show hEPO expression data in CD-1 mice at a dose of 0.5 mpk.

Structure (SMILES)	particle size ranking amongst the compositions of Tables 1 and 1a [1]	encapsulation efficiency ranking amongst the compositions of Tables 1 and 1a [2]	pKa [3]	% Dose Remaining 6 hr [4] [%]	% Dose Remaining 24 hr [4] [%]
CCCCCCCCCCCCN(CCCCCCCCCCCC)CCN1CCN(CCN(CCCCCCCCCCCC)C(=O)CN(CCCCCCCCCCCC)CCCCCCCCCCCC)CC1 [Compound 1, 2-(Didodecylamino)-N-(2-(4-(2-(didodecylamino)ethyl)piperazin-1-yl)ethyl)-N-dodecylacetamide]	largest particles	lowest			
CCCCC/C=C\CCCCCN(CCCCCCCCCCCC)CCN1CCN(CCN(CCCCCCCCCCCC)CCN(CCCCCCCCCCCC)CCCCCCCCCCCC)CC1 [Compound 24, (Z)—N^1-(2-(4-(2-(Dodec-6-en-1-yl(dodecyl)amino)ethyl)piperazin-1-yl)ethyl)-N^1,N^2,N^2-tridodecylethane-1,2-diamine]		lowest			
CCCCC/C=C\C/C=C\CCCCCCCCN(CCCCCCCC/C=C\C/C=C\CCCCC)CCN(CCCCCCCC/C=C\C/C=C\CCCCC)CCN1CCN(CCN(CCCCCCCCCCCC)CCCCCCCCCCCC)CC1 [Compound 34, N^1-(2-(4-(2-(Didodecylamino)ethyl)piperazin-1-yl)ethyl)-N^1,N^2,N^2-tri((9Z,12Z)-octadeca-9,12-dien-1-yl)ethane-1,2-diamine]	smallest particles				
CCCCCCCCCN(CCCCCCCCC)CCN(CCCCCCCCC)CCN1CCNCC1 [Compound 36, N^1,N^1,N^2-Trinonyl-N^2-(2-(piperazin-1-yl)ethyl)ethane-1,2-diamine]		highest			
CCCCCCCCCCCCN(CCCCCCCCCCCC)CCN(CCCCCCCCCCCC)CCN1CCNCC1 [Compound 37, N^1,N^1,N^2-Tridodecyl-N^2-(2-(piperazin-1-yl)ethyl)ethane-1,2-diamine]		highest			
CCCCCCCC/C=C\CCCCCCCCN(CCCCCCCC/C=C\CCCCCCCC)CCN(CCCCCCCC/C=C\CCCCCCCC)CCN1CCNCC1 [Compound 40, N^1,N^1,N^2-Tri((Z)-octadec-9-en-1-yl)-N^2-(2-(piperazin-1-yl)ethyl)ethane-1,2-diamine]		highest			
CCCCC/C=C\C/C=C\CCCCCCCCN(CCCCCCCC/C=C\C/C=C\CCCCC)CCN(CCCCCCCC/C=C\C/C=C\CCCCC)CCN1CCNCC1 [Compound 41, N^1,N^1,N^2-Tri((9Z,12Z)-octadeca-9,12-dien-1-yl)-N^2-(2-(piperazin-1-yl)ethyl)ethane-1,2-diamine]		highest			
CCCCCCCCCN(CCCCCCCCC)CCN(CCCCCCCCC)CCC1CCN(C(=O)CN(CCCCCCCCC)CCCCCCCCC)CC1 [Compound 50, 2-(Dinonylamino)-1-(4-(2-((2-(dinonylamino)ethyl)(nonyl)amino)ethyl)piperidin-1-yl)ethan-1-one]	smallest particles				
CCCCCCCCCN(CCCCCCCCC)CCN(CCCCCCCCC)CC(=O)N1CCN(C(=O)CN(CCCCCCCCC)CCCCCCC(=O)OCC)CC1 [Compound 53, Ethyl 7-((2-(4-(N-(2-(dinonylamino)ethyl)-N-nonylglycyl)piperazin-1-yl)-2-oxoethyl)(nonyl)amino)heptanoate]			6.91		
CCCCCCCCCN(CCCCCCCCC)CCN(CCCCCCCCC)CC(=O)N1CCN(C(=O)CN(CCCCCCCCC)CCCCCC(=O)OCCC)CC1 [Compound 54, Propyl 6-((2-(4-(N-(2-(dinonylamino)ethyl)-N-nonylglycyl)piperazin-1-yl)-2-oxoethyl)(nonyl)amino)hexanoate]			6.88		
CCCCCCCCCN(CCCCCCCCC)CCN(CCCCCCCCC)CC(=O)N1CCN(C(=O)CN(CCCCCCCCC)CCCCC(=O)OCCCC)CC1 [Compound 55, Butyl 5-((2-(4-(N-(2-(dinonylamino)ethyl)-N-nonylglycyl)piperazin-1-yl)-2-oxoethyl)(nonyl)amino)pentanoate]			6.96		
CCCCCCCCCN(CCCCCCCC(=O)OC)CCC1CCN(C(=O)CN(CCCCCCCCC)CCN(CCCCCCCCC)CCCCCCCCC)CC1 [Compound 57, Methyl 8-((2-(1-(N-(2-(dinonylamino)ethyl)-N-nonylglycyl)piperidin-4-yl)ethyl)(nonyl)amino)octanoate]			6.73		
CCCCCCCCCN(CCCCCCC(=O)OCC)CCC1CCN(C(=O)CN(CCCCCCCCC)CCN(CCCCCCCCC)CCCCCCCCC)CC1 [Compound 58, Ethyl 7-((2-(1-(N-(2-(dinonylamino)ethyl)-N-nonylglycyl)piperidin-4-yl)ethyl)(nonyl)amino)heptanoate]			6.7		
CCCCCCCCCN(CCCCCC(=O)OCCC)CCC1CCN(C(=O)CN(CCCCCCCCC)CCN(CCCCCCCCC)CCCCCCCCC)CC1 [Compound 59, Propyl 6-((2-(1-(N-(2-(dinonylamino)ethyl)-N-nonylglycyl)piperidin-4-yl)ethyl)(nonyl)amino)hexanoate]			6.68		
CCCCCCCCCN(CCCC(=O)OCCCCC)CCC(=O)N1CCN(C(=O)CCN(CCCCCCCCC)CCN(CCCCCCCCC)CCCCCCCCC)CC1 [Compound 62, Pentyl 4-((3-(4-(3-((2-(dinonylamino)ethyl)(nonyl)amino)propanoyl)piperazin-1-yl)-3-oxopropyl)(nonyl)amino)butanoate]			7.56	16.99	14.36
CCCCCCCCCN(CCCCCCCCC)CCC1CCN(C(=O)CN(CCCCCCCCC)CCN(CCCCCCCCC)CCCCCCCCC)C1 (stereo not shown) [Compound 69, 2-((2-(Dinonylamino)ethyl)(nonyl)amino)-1-(3-(2-(dinonylamino)ethyl)pyrrolidin-1-yl)ethan-1-one]			7.01	59.21	52.03
CCCCCCCCCN(CCCCCCCCC)CCN(CCCCCCCCC)CC(=O)N1CCC(CN(CCCCCCCCC)CCCCCCCCC)C1 (stereo not shown) [Compound 70, 2-((2-(Dinonylamino)ethyl)(nonyl)amino)-1-(3-((dinonylamino)methyl)pyrrolidin-1-yl)ethan-1-one]			6.75	56.30	57.20
CCCCCCCCCN(CCCCCCCCC)CCN(CCCCCCCCC)CC(=O)N1CCN(C(=O)CN(CCCC(=O)OCCCCC)CCCC(=O)OCCCCC)CC1 [Compound 72, Dipentyl 4,4′-((2-(4-(N-(2-(dinonylamino)ethyl)-N-nonylglycyl)piperazin-1-yl)-2-oxoethyl)azanediyl)dibutyrate]			7.19		
CCCCCCCCCN(CCCCCCCCC)CCC1CCCN(C(=O)CN(CCCCCCCCC)CCN(CCCCCCCCC)CCCCCCCCC)C1 (stereo not shown) [Compound 73, 2-((2-(Dinonylamino)ethyl)(nonyl)amino)-1-(3-(2-(dinonylamino)ethyl)piperidin-1-yl)ethan-1-one]			6.65	68.53	64.75
CCCCCCCCCN(CCCC(=O)OCCCCC)CCC1CCCN(C(=O)CN(CCCCCCCCC)CCN(CCCCCCCCC)CCCCCCCCC)C1 (stereo not shown) [Compound 80, Pentyl 4-((2-(1-(N-(2-(dinonylamino)ethyl)-N-nonylglycyl)piperidin-3-yl)ethyl)(nonyl)amino)butanoate]			6.78	23.78	25.25
CCCCCCCCCN(CCCC(=O)OCCCCC)CCC1CCN(C(=O)CN(CCCCCCCCC)CCN(CCCCCCCCC)CCCCCCCCC)C1 (stereo not shown) [Compound 81, Pentyl 4-((2-(1-(N-(2-(dinonylamino)ethyl)-N-nonylglycyl)pyrrolidin-3-yl)ethyl)(nonyl)amino)butanoate]			7.22	15.28	19.27
CCCCCCCCCN(CCCCCCCCC)CCN(CCCCCCCCC)CC(=O)N1CCC(CN(CCCCCCCCC)CCCC(=O)OCCCCC)C1 (stereo not shown) [Compound 82, Pentyl 4-(((1-(N-(2-(dinonylamino)ethyl)-N-nonylglycyl)pyrrolidin-3-yl)methyl)(nonyl)amino)butanoate]			7.05	37.85	38.66
CCCCCCCCCN(CCCC(=O)OCCCCC)CCC1CCN(C(=O)CN(CCCCCCCCC)CCN(CCCCCCCCC)CCCCCCCCC)CC1 [Compound 83, Pentyl 4-((2-(1-(N-(2-(dinonylamino)ethyl)-N-nonylglycyl)piperidin-4-yl)ethyl)(nonyl)amino)butanoate]			6.72	31.32	30.54
CCCCCCCCCN(CCCC(=O)OCCCCC)CCCC1CCN(C(=O)CCN(CCCCCCCCC)CCN(CCCCCCCCC)CCCCCCCCC)CC1 [Compound 84, Pentyl 4-((3-(1-(3-((2-(dinonylamino)ethyl)(nonyl)amino)propanoyl)piperidin-4-yl)propyl)(nonyl)amino)butanoate]			7.01	21.23	20.86

From patent US12077501B2, “Compounds and compositions for intracellular delivery of agents” (ModernaTX, Inc., priority 2017, dated 2024)
